Test results as given in patent US9163256B2, “Mutant receptors and their use in a nuclear receptor-based inducible gene expression system” (priority 2004, dated 2015).

Experiments:
CfEcR-DEF mutant A110N = CfEcR-DEF mutant A110N (Choristoneura fumiferana, UniProt O77255, A393N); test: cell-based; conditions: mutant A110N; for EC50: read-out: EC50; for Rel Max FI: relative to max fold induction of GS-E ligand
Experimental: (§1) This construct was prepared in the same way as in switch 1.1 above except wild-type CfEcR-DEF was replaced with mutant CfEcR-DEF comprising a ligand binding domain comprising a substitution mutation selected from Table 1 below.
(§2) DNAs were transfected into mouse NIH3T3 cells (ATCC) as follows. Standard methods for culture and maintenance of the cells were followed. Cells were harvested and plated 96-well plates at 2,500 cells per well, in 50 μL of growth medium containing 10% fetal bovine serum (FBS). Twenty-four hours later, the cells were treated with 35 μL of serum-free growth medium containing either dimethylsulfoxide (DMSO; control) or a DMSO solution of ligand. The cells were then transfected using Superfect (Qiagen Inc.) transfection reagent. For each well, 0.625 μL of Superfect was mixed with 14.2 μL of serum-free growth medium. 0.16 μg of reporter construct and 0.04 μg of each receptor construct were added to the transfection reagent mix. The contents of the transfection mix were mixed in a vortex mixer and let stand at room temperature for 30 minutes. At the end of incubation, 15 μL of transfection mix was added to the cells. The cells were maintained at 37° C. and 5% CO2 for 48 hours in 5% FBS.
(§3) Reporter Assays: Cells were harvested 40 hours after adding ligands. 125 μL of passive lysis buffer (part of Dual-Luciferase reporter assay system from Promega Corporation) were added to each well of the […] plate. The plates were placed on a rotary shaker for 15 minutes. Twenty μL of lysate were assayed. Luciferase activity was measured using Dual-Luciferase reporter assay system from Promega Corporation following the manufacturer's instructions. Fold induction (FI) activities were calculated by dividing relative light units (“RLU”) in ligand treated cells with RLU in DMSO treated cells (untreated control).

CfEcR-DEF mutant F109M = CfEcR-DEF mutant F109M (Choristoneura fumiferana, UniProt O77255, F392M); test: cell-based; conditions: mutant F109M; for EC50: read-out: EC50; for Rel Max FI: relative to max fold induction of GS-E ligand
Experimental: as §1, §2, §3

CfEcR-DEF mutant F48W = CfEcR-DEF mutant F48W (Choristoneura fumiferana, UniProt O77255, F331W); test: cell-based; conditions: mutant F48W; for EC50: read-out: EC50; for Rel Max FI: relative to max fold induction of GS-E ligand
Experimental: as §1, §2, §3

CfEcR-DEF mutant F48Y = CfEcR-DEF mutant F48Y (Choristoneura fumiferana, UniProt O77255, F331Y); test: cell-based; conditions: mutant F48Y; for EC50: read-out: EC50; for Rel Max FI: relative to max fold induction of GS-E ligand
Experimental: as §1, §2, §3

CfEcR-DEF mutant T52P = CfEcR-DEF mutant T52P (Choristoneura fumiferana, UniProt O77255, T335P); test: cell-based; conditions: mutant T52P; for EC50: read-out: EC50
Experimental: as §1, §2, §3

CfEcR-DEF mutant V128F = CfEcR-DEF mutant V128F (Choristoneura fumiferana, UniProt O77255, V411F); test: cell-based; conditions: mutant V128F; for EC50: read-out: EC50
Experimental: as §1, §2, §3

CfEcR-DEF mutant V96E = CfEcR-DEF mutant V96E (Choristoneura fumiferana, UniProt O77255, V379E); test: cell-based; conditions: mutant V96E; for EC50: read-out: EC50
Experimental: as §1, §2, §3

CfEcR-DEF mutant W238E = CfEcR-DEF mutant W238E (Choristoneura fumiferana, UniProt O77255, W521E); test: cell-based; conditions: mutant W238E; for EC50: read-out: EC50
Experimental: as §1, §2, §3

CfEcR-DEF mutant Y120M = CfEcR-DEF mutant Y120M (Choristoneura fumiferana, UniProt O77255, Y403M); test: cell-based; conditions: mutant Y120M; for EC50: read-out: EC50
Experimental: as §1, §2, §3

CfEcR-DEF mutant N119F = test: GAL4-driven luciferase reporter assay in NIH3T3 cells; assay type: cell-based, Choristoneura fumiferana
Experimental: as §1, §2, §3

Chain of CfEcR-DEF mutant F48W (P28702 299-449): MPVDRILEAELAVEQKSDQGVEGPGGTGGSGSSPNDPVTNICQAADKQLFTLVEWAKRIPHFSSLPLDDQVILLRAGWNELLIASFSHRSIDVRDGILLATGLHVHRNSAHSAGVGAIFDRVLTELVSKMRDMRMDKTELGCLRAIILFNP
Chain of CfEcR-DEF mutant F48W (O77255 entry or part of it F331W): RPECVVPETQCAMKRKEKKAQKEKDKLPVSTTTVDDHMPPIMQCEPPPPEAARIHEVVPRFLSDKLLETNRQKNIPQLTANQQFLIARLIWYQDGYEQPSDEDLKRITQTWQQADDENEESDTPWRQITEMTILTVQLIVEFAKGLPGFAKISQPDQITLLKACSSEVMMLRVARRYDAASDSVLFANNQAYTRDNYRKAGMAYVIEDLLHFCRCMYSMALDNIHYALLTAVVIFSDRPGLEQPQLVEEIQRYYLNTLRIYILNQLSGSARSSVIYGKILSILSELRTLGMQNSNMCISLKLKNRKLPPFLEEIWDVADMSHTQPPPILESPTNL
Chain of CfEcR-DEF mutant V128F (P28702 299-449): as the sequence (P28702 299-449) above
Chain of CfEcR-DEF mutant V128F (O77255 entry or part of it V411F): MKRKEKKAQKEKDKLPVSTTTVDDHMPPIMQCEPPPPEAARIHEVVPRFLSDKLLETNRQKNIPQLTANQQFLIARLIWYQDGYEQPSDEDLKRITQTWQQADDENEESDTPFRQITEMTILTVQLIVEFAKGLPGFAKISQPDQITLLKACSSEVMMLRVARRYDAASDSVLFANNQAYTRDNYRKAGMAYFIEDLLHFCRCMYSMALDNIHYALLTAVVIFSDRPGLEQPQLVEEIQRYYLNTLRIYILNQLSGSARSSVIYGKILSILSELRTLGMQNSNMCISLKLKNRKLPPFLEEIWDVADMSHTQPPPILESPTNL
Chain of CfEcR-DEF mutant W238E (P28702 299-449): as the sequence (P28702 299-449) above
Chain of CfEcR-DEF mutant W238E (O77255 entry or part of it W521E): as the sequence (O77255 entry or part of it V411F) above, with F193V, W303E counted along it
Chain of CfEcR-DEF mutant Y120M (O77255 entry or part of it Y403M): as the sequence (O77255 entry or part of it V411F) above, with Y185M, F193V counted along it
Chain of CfEcR-DEF mutant Y120M (P28702 299-449, further chain): as the sequence (P28702 299-449) above
Chain of CfEcR-DEF mutant F109M (O77255 entry or part of it F392M): as the sequence (O77255 entry or part of it F331W) above, with W125F, F186M counted along it
Chain of CfEcR-DEF mutant F109M (P28702 299-449, further chain): as the sequence (P28702 299-449) above
Chain of CfEcR-DEF mutant A110N (O77255 entry or part of it A393N): as the sequence (O77255 entry or part of it F331W) above, with W125F, A187N counted along it
Chain of CfEcR-DEF mutant A110N (P28702 299-449, stated change not applied, further chain): as the sequence (P28702 299-449) above
Chain of CfEcR-DEF mutant F48Y (O77255 entry or part of it F331Y): as the sequence (O77255 entry or part of it F331W) above, with W125Y counted along it
Chain of CfEcR-DEF mutant F48Y (P28702 299-449, further chain): as the sequence (P28702 299-449) above
Chain of CfEcR-DEF mutant T52P (P28702 298-449): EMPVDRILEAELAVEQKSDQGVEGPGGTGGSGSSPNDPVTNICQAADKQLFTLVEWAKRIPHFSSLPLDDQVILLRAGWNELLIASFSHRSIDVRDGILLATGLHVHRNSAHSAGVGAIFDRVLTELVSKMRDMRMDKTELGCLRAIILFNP
Chain of CfEcR-DEF mutant T52P (O77255 entry or part of it T335P): as the sequence (O77255 entry or part of it F331W) above, with W125F, T129P counted along it
Chain of CfEcR-DEF mutant V96E (O77255 entry or part of it V379E): as the sequence (O77255 entry or part of it V411F) above, with V161E, F193V counted along it
Chain of CfEcR-DEF mutant V96E (P28702 299-449, further chain): as the sequence (P28702 299-449) above

Row | SMILES | EC50 (CfEcR-DEF mutant A110N) | Rel Max FI (CfEcR-DEF mutant A110N) | EC50 (CfEcR-DEF mutant F109M) | Rel Max FI (CfEcR-DEF mutant F109M) | EC50 (CfEcR-DEF mutant F48W) | Rel Max FI (CfEcR-DEF mutant F48W) | EC50 (CfEcR-DEF mutant F48Y) | Rel Max FI (CfEcR-DEF mutant F48Y) | Rel Max FI (CfEcR-DEF mutant T52P) | EC50 (CfEcR-DEF mutant T52P) | Rel Max FI (CfEcR-DEF mutant V128F) | EC50 (CfEcR-DEF mutant V128F) | Rel Max FI (CfEcR-DEF mutant V96E) | EC50 (CfEcR-DEF mutant V96E) | Rel Max FI (CfEcR-DEF mutant W238E) | EC50 (CfEcR-DEF mutant W238E) | Rel Max FI (CfEcR-DEF mutant Y120M) | EC50 (CfEcR-DEF mutant Y120M) | further results
1 | CC(C)(O)CC[C@@H](O)[C@](C)(O)[C@H]1CC[C@@]2(O)C3=CC(=O)[C@@H]4C[C@@H](O)[C@@H](O)C[C@]4(C)[C@H]3CC[C@]12C [20E, 20-hydroxyecdysone] | > 33 µM | 0 | > 33 µM | 0 | > 33 µM | 0 | > 33 µM | 0 | 0.02 | > 33 µM | 0.02 | ~10 µM | 0 | > 33 µM | 0 | > 33 µM | 0 | > 33 µM | 
2 | CC(C)CC[C@@H](O)[C@](C)(O)[C@H]1CC[C@@]2(O)C3=CC(=O)[C@@H]4C[C@@H](O)[C@@H](O)C[C@]4(C)[C@H]3CC[C@]12C [PonA, ponasterone A] | > 33 µM | 0 | ~20 µM | 0.16 | ~10 µM | 0.65 | ~10 µM | 0.33 | 0.03 | > 33 µM | 0.03 | > 33 µM | 0.02 | > 33 µM | 0 | > 33 µM | 0.04 | > 33 µM | Fold increase over WT (CfEcR-DEF mutant N119F; 1.6 nM ligand): 1.33; Fold increase over WT (CfEcR-DEF mutant N119F; 8 nM ligand): 1.7; Fold increase over WT (CfEcR-DEF mutant N119F; 40 nM ligand): 9.42; Fold increase over WT (CfEcR-DEF mutant N119F; 200 nM ligand): 6.50; Fold increase over WT (CfEcR-DEF mutant N119F; 1 μM ligand): 3.00
